# Reference: US9480664B2, “Compositions and methods for treating cancer” (Augusta University Research Institute, Inc., priority 2014, dated 2016)
# What was measured:
# [1] = test system: B6 mice subjected to ischemic stroke; assay: Ischemic stroke in B6 mice supplemented with 20-OH PGE2; format: in vivo, mouse; settings: 20-OH PGE2 250 ng/h via osmotic pump, 7 days, vs vehicle
# Procedure: B6 mice were divided into two groups: one supplemented with 20-OH PGE2 (250 ng/h in an osmotic pump) and one given vehicle. After one week of treatment, the mice were subjected to ischemic stroke.
# Although 20-OH PGE2 elicits beneficial protective effects in brain endothelial cells under OGD/Rep, the precise role of 20-OH PGE2 in ischemic stroke is still to be defined. To determine the effects of 20-OH PGE2 supplementation on stroke damage, B6 mice were treated with 20-OH PGE2 (Cayman) (administered via an osmotic pump (Alzet) at a dose of 250 ng/h) or vehicle for 7 days. The effects of 20-OH PGE2 on infarct size and neurological deficit after ischemic stroke were examined.
# [2] = test system: 20-HETE production in MC38 cells; assay: 20-HETE production in cultured MC38 cells (LC/MS/MS); format: cell-based, mouse; settings: HET0016 1 μM vs vehicle; FIG. 1C
# Procedure: (§1) MC38 cells were maintained in complete medium consisting of DMEM supplemented with 10% heat-inactivated FBS, […] streptomycin, and 100 U/ml penicillin in a humidified incubator at 37° C. with 5% CO2. Sub-confluent cultured cells were harvested by washing T-75 flasks two times with Ca^2+- and Mg^2+-free Earl's balanced salts, followed by 2 min incubation with 0.25% trypsin-EDTA (Life Technologies, Grand Island, N.Y.) at 37° C. A human cerebral microvascular endothelial cell line (HCMECL) was used in the studies (University of Georgia, Athens, Ga.). Primary rat brain microvascular endothelial cells (RBMEC) were prepared as described previously (Prakash, et al., Diabetes 61:97 1533-1542 (2012)). HCMECL and RBMEC were maintained in MCDB-131 complete medium (VEC Technologies, Rensselaer, N.Y.).
# (§2) MC38 cells were collected using 0.25% trypsin-EDTA. After centrifugation, a cell pallet was re-suspended in 300 μl of PBS. […] The concentrations of 20-HETE in media and cell lysates were determined by Liquid Chromatography—Tandem Mass Spectrometry (LC/MS/MS) using 15(S)-HETE-d8 as an internal standard as described previously (Chen, et al., Prostaglandins Other Lipid Mediat 104-105:42-48 (2013)). […] The concentrations of PGE2 in media and cell lysates were determined by an ELISA kit (Cayman Chemical, Ann Arbor, Mich.) according to the manufacturer's instructions.
# MC38 cells [3] = assay: MC38 cell growth by counting cell numbers; format: cell-based, mouse; settings: single agent 100 nM to 10 μM, 48 h, serum-free medium + EGF 200 ng/ml; FIG. 3A/3B
# Procedure: For cell growth experiments, cells were seeded onto 6-well plates at a density of 2.5×10^5 cells/well. […] After 48 h of treatment, cells were collected using 0.25% trypsin-EDTA and counted using a hemocytometer.
# MC38 cells [4] = assay: MC38 cell proliferation by BrdU ELISA assay; format: cell-based, mouse; settings: 48 h
# Procedure: MC38 cells were seeded at a density of 5×10^3 cells/well in 10% FBS/DMEM in 96-well plates. […] BrdU ELISA assay was done using an ELISA kit (CycLex Co., Nagano, Japan). Briefly, 3 h before assay, BrdU (10 μM final concentration) was added to the 96-well plates containing MC38 cells given different incubation conditions. After 3 h of incubation, the culture medium was removed, and fixed with Fixing/Denaturing solution (200 μl/well) at room temperature for 30 min. After removing Fixing/Denaturing solution, plates were incubated with monoclonal anti-BrdU antibody (50 μl/well) at room temperature for 1 h. Plates were washed five times with Wash buffer (200 μl/well), then incubated with the secondary antibody (50 μl/well) at room temperature for 1 h. After removing the secondary antibody and doing a second wash procedure, plates were incubated with Substrate Reagent (50 μl/well) at room temperature for 15 min in the dark. The reaction was then stopped by adding Stop Solution (50 μl/well). The absorbance in each well was measured using a Tecan GENios Plus microplate reader at dual wavelengths of 450/540 nm.
# subcutaneous MC38 tumors = assay: Tumor growth in MC38 colon tumor-bearing C57BL/6J mice; format: in vivo, mouse; settings: HET0016 5 or 10 mg/kg/day i.p.; rofecoxib 50 mg/l in drinking water; combination compared with rofecoxib alone; FIG. 5
# Procedure: 8-week-old male C57BL/6J mice were subcutaneously injected with MC38 cells (1.4×10^6 cells/mouse) to induce colon tumor. […] All treatments were done for 21 days. Rofecoxib (50 mg/l) was suspended in drinking water containing 1% (vol/vol) PEG 400 (Sigma-Aldrich) and 0.5% (wt/vol) 2-hydroxypropyl-β-cyclodextrin (Sigma-Aldrich). The formula and dose of rofecoxib were prepared according to a previous publication (Liu, et al., Proc Natl Acad Sci USA 107: 17017-17022 (2010)). Tumor growth rates were monitored by measuring tumor volume with a sliding caliper on day 9 or day 18 after cell-implantation. The volumes of tumors were calculated from the major dimension (L) and minor dimension (S), using the equation: tumor volume=L×(S)2/2 as described previously (Konson, et al., Cancer Gene Ther 11: 830-840 (2004)).
# plasma eicosanoids = assay: Plasma 20-HETE and other eicosanoids in MC38 tumor mice (LC/MS/MS); format: in vivo, mouse; settings: 3 weeks; for Plasma 20-HETE levels / Plasma levels of EETs/DHETs, 5-HETE, 8-HETE, 11-HETE, 15-HETE: rofecoxib 50 mg/l, HET0016 5 mg/kg/day i.p. given with rofecoxib, FIG. 6A
# Procedure: After 3 weeks of different treatments, MC38 tumor mice were anesthetized with 2% isoflurane delivered by an anesthesia apparatus. About 0.6 ml of venous blood was collected from mice using a 1-ml syringe containing sodium citrate. The samples were centrifuged at 2,400×g for 15 min to obtain platelet-free plasma. To stabilize eicosanoids in plasma samples, 10 μl combinations of antioxidants (EDTA (0.2 mg/l), butylated hydroxytoluene (0.2 mg/l), and triphenyphosphine (2 mg/l)) were added to each plasma sample. The plasma samples were stored at −80° C. until LC/MS/MS analysis. Plasma samples were spiked with 10 ng of 15(S)-HETE-d8, applied to preconditioned SEP Pak C18 cartridges (100 mg adsorbent, Waters), and washed with water followed by hexane. Eicosanoids were eluted with 500 μl of ethyl acetate-hexane (3:1). The eluate was dried under nitrogen and reconstituted in methanol: 25 mM aqueous ammonium acetate (7:3). The extracted and reconstituted sample was subjected to HPLC (Shimadzu Prominence XR system) on a Max-RP C18 column (2×150 mm, 3 μu, Phenomenex) isocratically eluted with methanol:13 mM aqueous ammonium acetate (8:2) at a flow rate of 0.4 ml/min. The eluent was monitored for 20-HETE, EETs (5,6-EET, 8,9-EET, 11,12-EET, 14,15-EET), DHETs (5,6-DHET, 8,9-DHET, 11,12-DHET, 14,15-DHET), 5-HETE, 8-HETE, 11-HETE, 15-HETE, PGJ2, PGE2, TXB2, and 15keto-PGE2 by mass spectrometer (QTRAP5500, ABSCIEX) in the negative ion mode using Multiple Reaction Monitoring under optimized conditions. 15(S)-HETE-d8 was used as the internal standard for recovery and quantitation. The concentrations of eicosanoids were determined by comparing the ratio of ion intensity of each eicosanoid versus that of 15(S)-HETE-d8, as described previously (Chen, et al., Prostaglandins Other Lipid Mediat 104-105:42-48 (2013); Maddipati, et al., Prostaglandins Other Lipid Mediat 94:59-72 (2011)).
# [5] = test system: PGE2 production in MC38 cells; assay: PGE2 production in MC38 cells (PGE2 ELISA); format: cell-based, mouse; settings: dose response; FIG. 2C
# Procedure: as §1, §2
# [6] = Water intake and body weight of treated mice; format: in vivo, mouse; settings: rofecoxib 50 mg/l in drinking water, n=5
# Procedure: In a complementary experiment, the water intake and body weight of mice treated with water, vehicle, and rofecoxib (50 mg/l) was determined. Neither vehicle (3.02±0.17 vs. 3.16±0.16 ml/24 h/mouse, n=5) nor rofecoxib (3.07±0.1 vs. 3.16±0.16 ml/24 h/mouse, n=5) treatment affected water intake. Likewise, there was no significant change of body weight among water (24±1.63 g/mouse, n=5), vehicle (23.8±1.1 g/mouse, n=5), and rofecoxib (24.5±1.0 g/mouse, n=5) group.
# Cyp4a = Cyp4a expression in liver and kidney of MC38 tumor mice (Western blot); format: in vivo, mouse; settings: 3-week rofecoxib treatment, FIG. 6C
# [7] = test system: MC38 tumor mice subjected to thromboembolic stroke; assay: Thromboembolic ischemic stroke in MC38 tumor mice: neurovascular injury and functional outcome; format: in vivo, mouse
# From the text: Age-matched non-tumor mice were usedas control. At the end of the treatment period, mice were subjected to thromboembolic stroke. Under isoflurane anesthesia, the right common carotid artery, the right external carotid artery (ECA), and the right internal carotid artery were exposed through a middle incision on the ventral side of the neck. A PE 10 catheter containing a fibrin-rich clot was gently inserted from the ECA stump into the distal internal carotid artery just proximal to the origin of the middle cerebral artery (MCA). Each clot (˜1 cm), prepared from a donor mouse, was injected with 75 μl of sterile PBS; after 2 min, the catheter was withdrawn as described previously (Hoda, et al., Exp Transl Stroke Med 3:16 (2011)). Occlusion was confirmed by a ≧70% drop in cerebral blood flow as compared to the pre-ischemic value. The success rate of thromboembolic MCA occlusion was 95% based on changes in cerebral blood flow. At day 3 after surgery, mice were first evaluated for functional outcome, then sacrificed for evaluation of neurovascular injury including infarct size and bleeding. Extracted brains were analyzed for infarct size in coronal slices of 2 mm thickness, labeled A-G, front to back. Hemorrhagic transformation (HT), secondary bleeding into the brain after ischemic stroke was evaluated by the presence of visible macroscopic bleeding and measured in a binary fashion: yes or no. Number of animals that had HT was reported per group. 2, 3, 5-Triphenyltetrazolium chloride (TTC), a mitochondria stain, was used to outline the infarct area. The captured images were numerically labeled and analyzed using specialized KS300 software. Infarct size was expressed as a percentage of the contralateral hemisphere. Neurologic deficits in mice given different treatments were assessed at 24 h and 72 h after stroke, using a 5-point scale for scoring: 0, no deficit; 1, forelimb flexion deficit on contralateral side; 2, decreased resistance to lateral push and torso turning to the ipsilateral side when held by tail; 3, significant circling to the affected side and reduced capability to bear weight on the affected side; 4, rarely moved spontaneously and preferred to stay at rest.
smiles,measurement,setting,value
O=C(O)CCC/C=C\C[C@H]1C(=O)C[C@@H](O)[C@@H]1/C=C/[C@@H](O)CCCCCO [20-OH PGE2],Infarct size after ischemic stroke,[1]; FIG. 10A,reduced
same,Neurological deficits after ischemic stroke,[1]; FIG. 10B,reduced
"CCCCc1ccc(N=CNO)c(C)c1 [HET0016, N-Hydroxy-N′-(4-butyl-2-methylphenyl)formamidine]",20-HETE production and secretion in MC38 cell media,[2],effectively blocked 20-HETE production and secretion
same,MC38 cell growth (cell number/well),MC38 cells [3],inhibited cell growth
same,BrdU incorporation into MC38 cells,"MC38 cells [4]; 100 nM to 10 μM, serum-free medium + EGF 200 ng/ml, FIG. 4A",inhibited the incorporation of BrdU in a concentration dependent manner
same,Tumor size on day 9 post implantation,subcutaneous MC38 tumors,did not affect tumor size
same,Tumor size on day 18 post-implantation,subcutaneous MC38 tumors,dose-dependently reduced tumor size
same,Plasma 20-HETE levels,plasma eicosanoids,selectively reduced plasma 20-HETE levels
same,"Plasma levels of EETs/DHETs, 5-HETE, 8-HETE, 11-HETE, 15-HETE",plasma eicosanoids,without affecting
same,"Plasma PGJ2, PGE2, TXB2 and 15 keto-PGE2 levels","plasma eicosanoids; HET0016 5 mg/kg/day i.p., FIG. 6B",did not affect
CS(=O)(=O)c1ccc(C2=C(c3ccccc3)C(=O)OC2)cc1 [rofecoxib],PGE2 production in MC38 cells,[5],dose-dependently inhibited PGE2 production
same,MC38 cell growth (cell number/well),MC38 cells [3],inhibited cell growth
same,BrdU incorporation into MC38 cells at 1 μM,"MC38 cells [4]; 1 μM (combination 1 μM each, compared with rofecoxib alone), FIG. 4B/4C",significantly inhibited BrdU incorporation
same,Tumor size on day 9 post implantation,subcutaneous MC38 tumors,significantly reduced tumor size
same,Tumor size on day 18 post-implantation,subcutaneous MC38 tumors,significantly reduced tumor size
same,Body weight,[6],24.5±1.0 g/mouse
same,Water intake,[6]; water group 3.16±0.16,3.07±0.1 ml/24 h/mouse
same,Plasma 20-HETE levels,plasma eicosanoids,selectively increased 20-HETE plasma levels
same,"Plasma levels of EETs/DHETs, 5-HETE, 8-HETE, 11-HETE, 15-HETE",plasma eicosanoids,no significant changes
same,cyp4a expression in the liver and kidney,Cyp4a,had no effect on cyp4a expression
same,Mortality after ischemic stroke,"[7]; 3 weeks treatment, rofecoxib 50 mg/l, HET0016 5 mg/kg/day i.p.",~30%
same,Animals that developed HT,"[7]; C57BL/6J, mouse, in vivo, 3 weeks",4 out of the 5
same,Functional outcome (neurological deficit score),"[7]; mouse, in vivo",neurological deficit scores were higher
same,Infarct size,"[7]; rofecoxib compared to control mice, combination compared to rofecoxib, FIG. 8B",reduced the size of infarcts
